Laboratory results as given in US20240158393A1, “PYRIDONE COMPOUNDS AND METHODS OF USE” (Exelixis, Inc., priority 2021, published 2024).
Where a name gives a salt, the structure may show the parent alone.

Key:
Human Met = biological target: T1, Human Met (Homo sapiens, UniProt P08581); experiment: Human Met kinase assay (33P radiometric / HTRF KinEase); assay type: biochemical; conditions: protocols of Examples D-1 and/or D-2; read-out: c-Met IC50
T1 construct: Human MET (residues 956-1390)
Protocol: Kinase activity and compound inhibition were investigated using the ^33P-Phosphoryl transfer radiometric kinase assay, performed using the KinaseProfiler™ service of Eurofins Pharma Discovery Services UK Limited. Dose-response experiments were performed using nine compound concentrations in a 96-well microtiter plate. For each assay, all compounds were prepared to a 50× final assay concentration (50 μM) in 100% DMSO, then diluted in a half-log series, with the final top concentration at 1 μM. This working stock of the compound was added to the assay well as the first component in the reaction, followed by the remaining components as detailed in the following assay protocols below. The positive control wells (100% kinase activity) contain all components of the reaction including 2% DMSO (control for solvent effects), except the compound of interest. Blank wells contain all components of the reaction, with the reference inhibitor, staurosporine. This reference compound was used to abolish kinase activity and generated the 0% kinase activity base-line. IC50 values were calculated by nonlinear regression analysis using the sigmoidal dose-response (variable slope) curve fit on XLFit version 5.3 (ID Business Solutions).
Kinase activity and compound inhibition were also investigated using the HTRF® KinEase assay (Cisbio Cat #62TKOPEB) per manufacturer's instructions. In short, compounds were delivered in 300 nL volumes at 10 different concentrations in DMSO (3% final) to empty 384-well assay plates (Corning cat #3824). A mixture of enzyme, 1 μM biotinylated peptide substrate, and buffer in 10 μL volume was added. The assay was started upon the addition of ATP (at Km). The 10 μL reaction was incubated at room temperature. The reaction was stopped upon the addition of detection buffer containing streptavidin-XL665 (5 μL) and TK antibody-Eu3+(5 μL). After a 60 min incubation at room temperature, the fluorescence at 665 nm and 620 nm was read on an Envision microplate reader (Perkin Elmer).
Kinase activity normalized to DMSO (100% activity) and reference compound at 1 μM and (0% activity) was calculated using the fluorescence ratio […]. IC50 values were calculated by nonlinear regression analysis using a 4-parameter logistic curve fit in ActivityBase XE (IDBS).
Example D-1: Human Met (residues R974-S1390 with A1209G and V1290L, 3.4 nM) was incubated with 8 mM MOPS pH 7.0, 0.2 mM EDTA, 250 μM KKKGQEEEYVFIE (SEQ ID NO:3), 1 mM sodium orthovanadate, 5 mM […], 10 mM magnesium acetate, and 10 μM [γ-^33P-ATP]. The reaction was initiated by the addition of the Mg/ATP mix. After incubation for 40 minutes at room temperature, the reaction was stopped by the addition of phosphoric acid to a concentration of 0.5%. A reaction aliquot of 10 μL was then spotted onto a P30 filtermat and washed four times for 4 minutes in 0.425% phosphoric acid and once in methanol prior to drying and scintillation counting. Incorporated ^33P was measured using the Wallac Microbeta scintillation counter (Perkin Elmer).
Example D-2: Human MET (residues 956-1390; CarnaBio, 0.1 ng/well) was also incubated with enzymatic buffer (Cisbio) supplemented with 5 mM MgCl2, 1 mM DTT and 1 mM MnCl2. The mixture was added to the pre-plated compounds. The reaction was initiated upon addition of ATP at Km (3.0 μM). The reaction was incubated at room temperature for 40 min and stopped upon the addition of SA-XL665 and TK-antibody both diluted in EDTA-containing kinase detection buffer (Cisbio). The kinase activity was calculated as stated above and the IC50 values were reported.

Human Mer = biological target: T2, Human Mer (Homo sapiens, UniProt Q12866); experiment: Human Mer kinase assay (33P radiometric / HTRF KinEase); assay type: biochemical; conditions: protocols of Examples C-1 and/or C-2
T2 construct: Human Mer (residues R557-E882 with H628Q and R794A, 0.7 nM); purchased Eurofins Pharma Discovery Services UK Limited (KinaseProfiler service)
T2 sequence (Q12866 557-882 limits assumed): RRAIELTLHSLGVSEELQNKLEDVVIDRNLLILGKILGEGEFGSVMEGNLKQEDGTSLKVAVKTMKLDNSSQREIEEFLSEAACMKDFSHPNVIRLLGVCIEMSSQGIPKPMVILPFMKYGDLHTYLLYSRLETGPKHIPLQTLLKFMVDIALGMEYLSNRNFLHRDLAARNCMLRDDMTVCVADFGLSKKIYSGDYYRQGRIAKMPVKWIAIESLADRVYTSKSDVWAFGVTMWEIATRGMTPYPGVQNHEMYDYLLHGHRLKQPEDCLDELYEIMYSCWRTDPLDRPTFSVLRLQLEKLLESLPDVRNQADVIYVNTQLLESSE
Outline: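 Two formats yield IC50 values. HTRF KinEase used MER residues 528-999 with ATP at Km (40 μM), 1 μM biotin-peptide, 60 min RT, […], 10 concentrations. 33P filter assay used 0.7 nM Mer R557-E882 (H628Q/R794A), 10 μM ATP, 250 μM peptide, 40 min RT, top 1 μM.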

T1 sequence (P08581 974-1390 limits assumed): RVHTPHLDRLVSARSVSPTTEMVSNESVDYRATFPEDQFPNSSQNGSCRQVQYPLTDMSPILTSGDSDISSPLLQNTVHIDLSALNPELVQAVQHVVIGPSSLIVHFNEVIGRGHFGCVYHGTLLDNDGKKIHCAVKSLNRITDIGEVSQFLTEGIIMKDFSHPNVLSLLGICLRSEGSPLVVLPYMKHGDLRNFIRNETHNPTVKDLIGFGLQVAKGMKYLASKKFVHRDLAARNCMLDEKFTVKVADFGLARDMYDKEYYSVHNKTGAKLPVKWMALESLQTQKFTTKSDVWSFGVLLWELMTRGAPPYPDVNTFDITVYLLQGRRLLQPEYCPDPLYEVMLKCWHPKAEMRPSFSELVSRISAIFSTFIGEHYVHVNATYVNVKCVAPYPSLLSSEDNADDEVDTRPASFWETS

| SMILES | IC50 (Human Met) [nM] | IC50 (Human Mer) [nM] |
| --- | --- | --- |
| COc1cc2nccc(Oc3ccc(NC(=O)c4cn(C)c(C)c(C5=CCCC5)c4=O)cc3F)c2nc1OC [Compound 1, 5-(Cyclopenten-1-yl)-N-[4-[(6,7-dimethoxy-1,5-naphthyridin-4-yl)oxy]-3-fluorophenyl]-1,6-dimethyl-4-oxopyridine-3-carboxamide] | ≤ 100 | ≤ 100 |
| COc1cc2nccc(Oc3ccc(NC(=O)c4c(C)nc(C)c(C5=CCCC5)c4O)cc3F)c2nc1OC [Compound 1-2, 5-(Cyclopenten-1-yl)-N-[4-[(6,7-dimethoxy-1,5-naphthyridin-4-yl)oxy]-3-fluorophenyl]-4-hydroxy-2,6-dimethylpyridine-3-carboxamide hydrochloride] | ≤ 100 | ≤ 100 |
| COc1cc2nccc(Oc3ccc(NC(=O)c4cnc(C)c(C5=CCOCC5)c4O)cc3F)c2nc1OC [Compound 1-3, 5-(3,6-Dihydro-2H-pyran-4-yl)-N-[4-[(6,7-dimethoxy-1,5-naphthyridin-4-yl)oxy]-3-fluorophenyl]-4-hydroxy-6-methylpyridine-3-carboxamide] | ≤ 100 | ≤ 100 |
| COc1cnc2c(Oc3ccc(NC(=O)c4cnc(C)c(C5=CCOCC5)c4O)cc3F)ccnc2c1 [Compound 1-4, 5-(3,6-Dihydro-2H-pyran-4-yl)-N-[3-fluoro-4-[(7-methoxy-1,5-naphthyridin-4-yl)oxy]phenyl]-4-hydroxy-6-methylpyridine-3-carboxamide] | ≤ 100 | ≤ 100 |
| COc1ccc2nccc(Oc3ccc(NC(=O)c4cnc(C)c(C5=CCOCC5)c4O)cc3F)c2n1 [Compound 1-5, 5-(3,6-Dihydro-2H-pyran-4-yl)-N-[3-fluoro-4-[(6-methoxy-1,5-naphthyridin-4-yl)oxy]phenyl]-4-hydroxy-6-methylpyridine-3-carboxamide] | > 300 | ≤ 100 |
| COc1ccc2nccc(Oc3ccc(NC(=O)c4cnc(C)c(C5=CCCCC5)c4O)cc3F)c2n1 [Compound 1-6, 5-(Cyclohexen-1-yl)-N-[3-fluoro-4-[(6-methoxy-1,5-naphthyridin-4-yl)oxy]phenyl]-4-hydroxy-6-methylpyridine-3-carboxamide] | ≤ 100 | ≤ 100 |
| COc1ccc2nccc(Oc3ccc(NC(=O)c4cnc(C)c(C5=CCCC5)c4O)cc3F)c2n1 [Compound 1-7, 5-(Cyclopenten-1-yl)-N-[3-fluoro-4-[(6-methoxy-1,5-naphthyridin-4-yl)oxy]phenyl]-4-hydroxy-6-methylpyridine-3-carboxamide] | ≤ 100 | ≤ 100 |
| COc1cnc2c(Oc3ccc(NC(=O)c4cnc(C)c(C5=CCCC5)c4O)cc3F)ccnc2c1 [Compound 1-9, 5-(Cyclopenten-1-yl)-N-[3-fluoro-4-[(7-methoxy-1,5-naphthyridin-4-yl)oxy]phenyl]-4-hydroxy-6-methylpyridine-3-carboxamide] | ≤ 100 | ≤ 100 |
| COc1cc2nccc(Oc3ccc(NC(=O)c4cn(C)c(C)c(C5CCCC5)c4=O)cc3F)c2nc1OC [Compound 2, 5-Cyclopentyl-N-[4-[(6,7-dimethoxy-1,5-naphthyridin-4-yl)oxy]-3-fluorophenyl]-1,6-dimethyl-4-oxopyridine-3-carboxamide] | ≤ 100 | ≤ 100 |
| COc1cc2nccc(Oc3ccc(NC(=O)c4c(C)nc(C)c(C5=CCCCC5)c4O)cc3F)c2nc1OC [Compound 2-3, 5-(Cyclohexen-1-yl)-N-[4-[(6,7-dimethoxy-1,5-naphthyridin-4-yl)oxy]-3-fluorophenyl]-4-hydroxy-2,6-dimethylpyridine-3-carboxamide] | ≤ 100 | ≤ 100 |
| C=C(C)c1c(C)nc(C)c(C(=O)Nc2cc(F)c(Oc3ccnc4cc(OC)c(OC)nc34)cc2F)c1O [Compound 6, N-[4-[(6,7-Dimethoxy-1,5-naphthyridin-4-yl)oxy]-2,5-difluorophenyl]-4-hydroxy-2,6-dimethyl-5-prop-1-en-2-ylpyridine-3-carboxamide] | ≤ 100 | ≤ 100 |
| COc1cnc2c(Oc3ccc(NC(=O)c4cnc(C)c(C5=CCOCC5)c4O)cc3)ccnc2c1 [Compound 7, 5-(3,6-Dihydro-2H-pyran-4-yl)-4-hydroxy-N-[4-[(7-methoxy-1,5-naphthyridin-4-yl)oxy]phenyl]-6-methylpyridine-3-carboxamide] | ≤ 100 | ≤ 100 |
| COc1cc2nccc(Oc3ccc(NC(=O)c4cn(CCF)c(C)c(C5=CCCCC5)c4=O)cc3F)c2nc1OC [Compound 8, 5-(Cyclohexen-1-yl)-N-[4-[(6,7-dimethoxy-1,5-naphthyridin-4-yl)oxy]-3-fluorophenyl]-1-(2-fluoroethyl)-6-methyl-4-oxopyridine-3-carboxamide] | ≤ 100 | ≤ 100 |
| COc1cc2nccc(Oc3ccc(NC(=O)c4c(C)nc(C)c(C(C)C)c4O)cc3)c2nc1OC [Compound 9, N-[4-[(6,7-Dimethoxy-1,5-naphthyridin-4-yl)oxy]phenyl]-4-hydroxy-2,6-dimethyl-5-propan-2-ylpyridine-3-carboxamide] | ≤ 100 | ≤ 100 |
| COc1cc2nccc(Oc3cc(F)c(NC(=O)c4c(C)nc(C)c(C(C)C)c4O)cc3F)c2nc1OC [Compound 10, N-[4-[(6,7-Dimethoxy-1,5-naphthyridin-4-yl)oxy]-2,5-difluorophenyl]-4-hydroxy-2,6-dimethyl-5-propan-2-ylpyridine-3-carboxamide] | ≤ 100 | ≤ 100 |
| COc1cc2nccc(Oc3ccc(NC(=O)c4cn(CCF)c(C)c(C5=CCCC5)c4=O)cc3F)c2nc1OC [Compound 11, 5-(Cyclopenten-1-yl)-N-[4-[(6,7-dimethoxy-1,5-naphthyridin-4-yl)oxy]-3-fluorophenyl]-1-(2-fluoroethyl)-6-methyl-4-oxopyridine-3-carboxamide] | ≤ 100 | ≤ 100 |
| COc1cnc2c(Oc3ccc(NC(=O)c4cn(C)c(C)c(C5=CCOCC5)c4=O)cc3F)ccnc2c1 [Compound 12, 5-(3,6-Dihydro-2H-pyran-4-yl)-N-[3-fluoro-4-[(7-methoxy-1,5-naphthyridin-4-yl)oxy]phenyl]-1,6-dimethyl-4-oxopyridine-3-carboxamide] | ≤ 100 | ≤ 100 |
| COc1cc2nccc(Oc3ccc(NC(=O)c4cn(CCF)c(C)c(C5CCCC5)c4=O)cc3F)c2nc1OC [Compound 13, 5-Cyclopentyl-N-[4-[(6,7-dimethoxy-1,5-naphthyridin-4-yl)oxy]-3-fluorophenyl]-1-(2-fluoroethyl)-6-methyl-4-oxopyridine-3-carboxamide] | ≤ 100 | ≤ 100 |
| COc1cc2nccc(Oc3ccc(NC(=O)c4c(C)cc(C)n(C5=CCCC5)c4=O)cc3F)c2nc1OC [Compound 14, 1-(Cyclopenten-1-yl)-N-[4-[(6,7-dimethoxy-1,5-naphthyridin-4-yl)oxy]-3-fluorophenyl]-4,6-dimethyl-2-oxopyridine-3-carboxamide] | ≤ 100 | ≤ 100 |
